Reference: patent publication US20110144014A1, “CYTOKINE RECEPTOR MODULATORS AND USES THEREOF” (CENTRE HOSPITALIER UNIVERSITAIRE SAINTE-JUSTINE, priority 2005, published 2011)
Marks after values point to notes of the source that are not given here. Where a SMILES comes first, the peptide text is derived from it. [ ]: non-standard residue; d: D form.

Tested on: TNBS-induced colon inflammation
Test: TNBS rat model of inflammatory bowel disease
Format: in vivo
Experimental: Colon inflammation was induced by intra-rectal/colon administration of the hapten trinitrobenzene sulphonic acid (TNBS) on male Sprague-Dawley rats (175-200 g) (Bouma, Nature Rev, 2003; Morris, Gastroenterology, 1989). Animals were anesthetized with isoflurane and TNBS dissolved in 50% ethanol (vol/vol). 120 mg/ml (TNBS) was administered into the colon (total volume of 0.25 ml per rat) using a polyethylene tube (PE50). The cannula was inserted at 8 cm from the anus and kept in place for at least 15 minutes after TNBS administration in order to prevent expulsion of the solution. Two hours prior to TNBS administration, the API-101 derivative API-101.10 (1.1 mg/kg) or 0.9% saline was administered intravenously via the caudal vein (total volume of 0.3 ml). […] A third group (control) was not injected with TNBS. Six days after administration of TNBS, rats were killed by CO2 inhalation. Day 6 was chosen as an endpoint because by day 7 spontaneous tissue regeneration begins and this can mask the therapeutic effect of the tested peptide or peptide derivative. Colon was removed and examined macroscopically (adhesions, ulcerations, discoloration and bleeding) and histologically (neutrophil infiltration, epithelial injury, crypt distortion and ulcerations) (Anthony et al., Int. J. Exp. Path. 76:215-224, 1995; Padol et al., Eur. J. of Gastroenterol. Hepatol. 12:257-265, 2000; Dieleman et al., […], 1997; Torres et al., Digestive Diseases and Sciences 44:2523-2529, 1999). Two animals per group were studied.
Histological transversal sections were cut at 4-6 cm from the proximal anal region and colored with the hematoxylin/eosin method. The TNBS model of inflammatory bowel disease reproduces the inflammatory characteristics and tissue injuries of Crohn's disease (e.g., in humans). Morphologically, the colon of the animals injected with TNBS presented thickening, edema, and discoloration of the intestinal wall indicating a significant inflammation. […] Histological features consisted of neutrophil infiltration into the epithelial layer and crypts, epithelial lining injury as well as the loss of crypts. […] The organization and integrity of the crypts in the API-101.10-treated colon is conserved even if there is still some inflammation (half the dose of API-101.10 was used as compared to the macroscopic analysis experiment).
Colon inflammation was induced by intra-rectal/colon administration of the hapten trinitrobenzene sulphonic acid (TNBS) as described above. Two hours prior to TNBS administration, peptides, peptidomimetics or 0.9% saline were administered intravenously (iv) via the caudal vein (various concentrations of mg/kg/d) (total volume of 0.3 ml). […] A third group (control) was not injected with TNBS. For intermittent administration, fifteen minutes after TNBS administration, 101.10 (0.25-1 mg/kg), 101.107 (0.2 mg/kg), 101.113 (0.05-1 mg/kg) were administered by intermittent intraperitoneal injection (ip). Also, these IL-1R antagonists were given twice a day (BID); Remicade® (anti-TNFα) (10 mg/kg) and dexamethasone (0.75 mg/kg) were administered intraperitoneally but only once a day (qd). The intrarectal administration (ir) of 101.10, 101.113 (1 and 2.5 mg/kg), and 5-ASA (50 mg/kg) was done one hour after TNBS administration, and twice a day, except for 5-ASA which is once a day. Finally, 101.10 (1-5 mg/kg) was also administered orally by gavage (po), twice a day. Forty-eight hours after administration of TNBS, rats were killed by CO2 inhalation. The colon was removed and assessed macroscopically (adhesions, ulcerations, discoloration and bleeding) and histologically (neutrophil infiltration, epithelial injury, crypt distortion and ulcerations). One to seven animals per group were studied, according to treatments. Myeloperoxidase (MPO) activity was measured on tissue lysates.

[1] = continuous infusion (ip), 0.25 mg/kg/d
[2] = continuous infusion (ip), 0.75 mg/kg/d
[3] = continuous infusion (ip), 2.2 mg/kg/d
[4] = continuous infusion (ip), 4.0 mg/kg/d
[5] = intermittent injection (ip), 0.25-BID mg/kg/d
[6] = intermittent injection (ip), 0.50-BID mg/kg/d
[7] = intermittent injection (ip), 1.0-BID mg/kg/d
[8] = intermittent injection (ip), 1.0-BID mg/kg/d, 12 h after TNBS
[9] = intermittent injection (ip), 1.0-qd mg/kg/d
[10] = intrarectal administration, 2.5-BID mg/kg/d
[11] = intrarectal administration, + PEG-400, 1.0-BID mg/kg/d
[12] = intrarectal administration, + PEG-400, 2.5-BID mg/kg/d
[13] = oral administration, 5.0-BID mg/kg/d
[14] = oral administration, + PEG-400, 1.0-BID mg/kg/d
[15] = oral administration, + PEG-400, 2.5-BID mg/kg/d
[16] = oral administration, + PEG-400, 5.0-BID mg/kg/d

CC(C)C[C@@H](NC(=O)[C@@H](CCC(=O)O)NC(=O)[C@H](NC(=O)[C@H](NC(=O)[C@@H](Cc1ccc(O)cc1)NC(=O)[C@H](N)CCCNC(=N)N)[C@H](C)O)C(C)C)C(=O)N[C@H](C)C(N)=O [API-101.10, RYTVELA] (H-[dR][dY][dT][dV][dE][dL][dA]-NH2; N-terminus and C-terminus assumed)
TNBS-induced colon damage (1.1 mg/kg iv 2 h before TNBS, then 2.2 mg/kg continuous ip infusion, day 6): prevented TNBS-induced colon damage | Histologic evaluation (median score) [1]: 2 (Small ulcer (<5 crypts)) | MPO (% of TNBS + Saline) [1]: 34 % of TNBS + Saline | Histologic evaluation (median score) [2]: 4.4 median score | MPO (% of TNBS + Saline) [2]: 54 % of TNBS + Saline | Histologic evaluation (median score) [3]: 2 (Small ulcer (<5 crypts)) | MPO (% of TNBS + Saline) [3]: 46 ± 22 % of TNBS + Saline | Histologic evaluation (median score) [4]: 2 (Small ulcer (<5 crypts)) | MPO (% of TNBS + Saline) [4]: 82 % of TNBS + Saline | inflammatory features and MPO activity (gavage twice a day, 5.0 mg/kg/d): substantially reduces | Histologic evaluation (median score) [5]: 2.25 median score | MPO (% of TNBS + Saline) [5]: 85 % of TNBS + Saline | Macroscopic evaluation (median score) [5]: 0.87 median score | Histologic evaluation (median score) [6]: 3 (Medium ulcer (5-10 crypts)) | MPO (% of TNBS + Saline) [6]: 126 % of TNBS + Saline | Macroscopic evaluation (median score) [6]: 0.87 median score | Histologic evaluation (median score) [7]: 1.25 median score | MPO (% of TNBS + Saline) [7]: 47 ± 9 % of TNBS + Saline | Macroscopic evaluation (median score) [7]: 0.8 ± 0.1 median score | Histologic evaluation (median score) [8]: 2.6 median score | Macroscopic evaluation (median score) [8]: 1.1 ± 0.1 median score | MPO (% of TNBS + Saline) (intermittent injection (ip), 1.0-BID mg/kg/d, 12 h after TNBS, leucocyte infiltration has already occurred): 123 ± 18 % of TNBS + Saline | Histologic evaluation (median score) [9]: 5 (Marked denudation (>20 crypts)) | MPO (% of TNBS + Saline) [9]: 67 % of TNBS + Saline | Macroscopic evaluation (median score) [9]: 1.63 median score | MPO activity, macroscopic and histologic score (intraperitoneal osmotic pumps (continuous infusion), superior or equivalent to Kineret): marked reductions | MPO (% of TNBS + Saline) [10]: 111 ± 25 % of TNBS + Saline | Macroscopic evaluation (median score) [10]: 1.4 ± 0.1 median score | Histologic evaluation (median score) [11]: 3.2 median score | MPO (% of TNBS + Saline) [11]: 110 % of TNBS + Saline | Macroscopic evaluation (median score) [11]: 1.25t median score | Histologic evaluation (median score) [12]: 3.9 median score | MPO (% of TNBS + Saline) [12]: 59 % of TNBS + Saline | Macroscopic evaluation (median score) [12]: 1.17^† median score | reduction of MPO activity (intrarectally, 2.5 mg/kg/d): 50% | Histologic evaluation (median score) [13]: 2.25 median score | MPO (% of TNBS + Saline) [13]: 65 % of TNBS + Saline | Macroscopic evaluation (median score) [13]: 0.75 median score | Histologic evaluation (median score) [14]: 3.5 median score | MPO (% of TNBS + Saline) [14]: 167 % of TNBS + Saline | Macroscopic evaluation (median score) [14]: 1.0 median score | Histologic evaluation (median score) [15]: 3.5 median score | MPO (% of TNBS + Saline) [15]: 176 % of TNBS + Saline | Macroscopic evaluation (median score) [15]: 1.25 median score | Histologic evaluation (median score) [16]: 3.6 median score | MPO (% of TNBS + Saline) [16]: 57 % of TNBS + Saline | Macroscopic evaluation (median score) [16]: 1.5 median score | efficacy of intermittent administration (twice a day, surpasses dexamethasone, Remicade and 5-ASA): dose-dependent efficacy
